Results published in ChEMBL document CHEMBL1201862, “PubChem BioAssay data set” (2004).
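Five compound concentrations were applied to cells in 96-well plates for 48 hours; endpoints were derived by simple linear interpolation of the resulting dose-response curve. The concentration for 50% growth inhibition is given as GI50.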 Active and inactive are the calls of the source. Rule as the data show it: active = GI50 up to about 1.1 µM and inactive = higher.

How the values were obtained:
Assay in all cases: inhibition of tumour cell growth, NCI panel, 48 h
XF498 = system: XF498
SNB-78 = system: SNB-78
ACHN = system: ACHN
HCT-116 = system: HCT-116
KM12 = system: KM12
MOLT-4 = system: MOLT-4
UACC-62 = system: UACC-62
UO-31 = system: UO-31
OVCAR-3 = system: OVCAR-3
SK-MEL-28 = system: SK-MEL-28
IGROV-1 = system: IGROV-1
OVCAR-4 = system: OVCAR-4
OVCAR-8 = system: OVCAR-8
SK-MEL-2 = system: SK-MEL-2
M14 = system: M14
DMS-273 = system: DMS-273
CAKI-1 = system: CAKI-1
OVCAR-5 = system: OVCAR-5
NCI-H522 = system: NCI-H522
SF-268 = system: SF-268
K562 = system: K562
SK-MEL-5 = system: SK-MEL-5
SR = system: SR
RXF 393 = system: RXF 393
HOP-18 = system: HOP-18
EKVX = system: EKVX
HT-29 = system: HT-29
CCRF-CEM = system: CCRF-CEM
Malme-3M = system: Malme-3M
M19-MEL = system: M19-MEL
U-251 = system: U-251
SF-539 = system: SF-539
NCI-H460 = system: NCI-H460
786-0 = system: 786-0
LXFL 529 = system: LXFL 529
SNB-75 = system: SNB-75
KM-20L2 = system: KM-20L2
A498 = system: A498
HL-60 = system: HL-60
COLO 205 = system: COLO 205
SNB-19 = system: SNB-19
UACC-257 = system: UACC-257
NCI-H226 = system: NCI-H226
SK-OV-3 = system: SK-OV-3
SN12C = system: SN12C
RXF 631 = system: RXF 631
HCT-15 = system: HCT-15
DLD-1 = system: DLD-1
SW-620 = system: SW-620
LOX IMVI = system: LOX IMVI
HOP-62 = system: HOP-62
SF-295 = system: SF-295
A549 = system: A549
NCI-H23 = system: NCI-H23
TK-10 = system: TK-10
RPMI-8226 = system: RPMI-8226
HCC 2998 = system: HCC 2998
HOP-92 = system: HOP-92
DMS-114 = system: DMS-114

With `CC(=O)Nc1ccc(C2CC(c3ccc([N+](=O)[O-])cc3)=Nc3ccccc3S2)cc1` (stereo unspecified) the GI50 (XF498) was 13.3 µM (inactive), the GI50 (SNB-78) was 36.1 µM (inactive) and the GI50 (ACHN) was 16.6 µM (inactive). For the same molecule, the GI50 (HCT-116) was 9.75 µM (inactive), the GI50 (KM12) was 13.9 µM (inactive) and the GI50 (MOLT-4) was 11.8 µM (inactive). For the same molecule, the GI50 (UACC-62) was 15.2 µM (inactive), the GI50 (UO-31) was 13.8 µM (inactive) and the GI50 (OVCAR-3) was 23.2 µM (inactive). For the same molecule, the GI50 (SK-MEL-28) was 18.7 µM (inactive), the GI50 (IGROV-1) was 25.8 µM (inactive) and the GI50 (OVCAR-4) was 19.7 µM (inactive). For the same molecule, the GI50 (OVCAR-8) was 16.6 µM (inactive), the GI50 (SK-MEL-2) was 17.9 µM (inactive) and the GI50 (M14) was 13.5 µM (inactive). For the same molecule, the GI50 (DMS-273) was 24.4 µM (inactive), the GI50 (CAKI-1) was 24 µM (inactive) and the GI50 (OVCAR-5) was 22.2 µM (inactive). The GI50 (NCI-H522) was > 10 µM (inactive), the GI50 (SF-268) was 24 µM (inactive) and the GI50 (K562) was 4.73 µM (inactive). For the same molecule, the GI50 (SK-MEL-5) was > 10 µM (inactive), the GI50 (SR) was 12.9 µM (inactive) and the GI50 (RXF 393) was 19.3 µM (inactive). The GI50 (HOP-18) was 24.3 µM (inactive), the GI50 (EKVX) was 36.8 µM (inactive) and the GI50 (HT-29) was 15.4 µM (inactive). The GI50 (CCRF-CEM) was 13.8 µM (inactive), the GI50 (Malme-3M) was 18.3 µM (inactive) and the GI50 (M19-MEL) was 18.8 µM (inactive). The GI50 (U-251) was 15.2 µM (inactive), the GI50 (SF-539) was 17.7 µM (inactive) and the GI50 (NCI-H460) was 17.3 µM (inactive). For the same molecule, the GI50 (786-0) was 17.4 µM (inactive), the GI50 (LXFL 529) was 16.6 µM (inactive) and the GI50 (SNB-75) was 12.8 µM (inactive). For the same molecule, the GI50 (KM-20L2) was 20.2 µM (inactive), the GI50 (A498) was 16.5 µM (inactive) and the GI50 (HL-60) was 21.3 µM (inactive). The GI50 (COLO 205) was 36.8 µM (inactive), the GI50 (SNB-19) was 22.7 µM (inactive) and the GI50 (UACC-257) was 15.7 µM (inactive). The GI50 (NCI-H226) was 26.9 µM (inactive), the GI50 (SK-OV-3) was 40.6 µM (inactive) and the GI50 (SN12C) was 16.6 µM (inactive). For the same molecule, the GI50 (RXF 631) was 22.9 µM (inactive), the GI50 (HCT-15) was 17.1 µM and the GI50 (DLD-1) was 13.3 µM (inactive). For the same molecule, the GI50 (SW-620) was 16.8 µM (inactive), the GI50 (LOX IMVI) was 15.5 µM (inactive) and the GI50 (HOP-62) was 17.1 µM (inactive). For the same molecule, the GI50 (SF-295) was 18.6 µM (inactive), the GI50 (A549) was 20.6 µM (inactive) and the GI50 (NCI-H23) was > 10 µM (inactive). The GI50 (TK-10) was 23.9 µM (inactive).

In the case of `O=[N+]([O-])c1cc(Cl)ccc1OCc1ccccc1`, the GI50 (XF498) is reported as 20.4 µM (inactive), the GI50 (SNB-78) is reported as 32.8 µM (inactive) and the GI50 (ACHN) is reported as 51.4 µM (inactive). For the same molecule, the GI50 (HCT-116) was 55.6 µM (inactive), the GI50 (KM12) was > 100 µM (inactive) and the GI50 (MOLT-4) was 27.9 µM (inactive). The GI50 (UACC-62) was > 100 µM (inactive), the GI50 (OVCAR-3) was 33 µM (inactive) and the GI50 (SK-MEL-28) was > 100 µM (inactive). For the same molecule, the GI50 (IGROV-1) was > 100 µM (inactive), the GI50 (OVCAR-4) was > 100 µM (inactive) and the GI50 (OVCAR-8) was > 100 µM (inactive). The GI50 (SK-MEL-2) was > 100 µM (inactive), the GI50 (M14) was 83.6 µM (inactive) and the GI50 (RPMI-8226) was 67 µM (inactive). The GI50 (DMS-273) was 54.6 µM (inactive), the GI50 (SF-268) was > 100 µM (inactive) and the GI50 (K562) was 42.7 µM (inactive). The GI50 (SK-MEL-5) was 27.3 µM (inactive), the GI50 (SR) was 26.4 µM (inactive) and the GI50 (RXF 393) was 47.3 µM (inactive). The GI50 (EKVX) was 27.2 µM (inactive), the GI50 (HT-29) was 29.6 µM (inactive) and the GI50 (CCRF-CEM) was 40.9 µM (inactive). For the same molecule, the GI50 (Malme-3M) was 99.3 µM (inactive), the GI50 (M19-MEL) was 44.3 µM (inactive) and the GI50 (U-251) was 42.2 µM (inactive). For the same molecule, the GI50 (SF-539) was 57.3 µM (inactive), the GI50 (NCI-H460) was 55.8 µM (inactive) and the GI50 (786-0) was 59 µM (inactive). For the same molecule, the GI50 (LXFL 529) was 41.6 µM (inactive), the GI50 (SNB-75) was 20.6 µM (inactive) and the GI50 (HCC 2998) was > 100 µM (inactive). For the same molecule, the GI50 (HOP-92) was 34 µM (inactive), the GI50 (A498) was > 100 µM (inactive) and the GI50 (HL-60) was 28.4 µM (inactive). The GI50 (COLO 205) was > 100 µM (inactive), the GI50 (UACC-257) was 45.3 µM (inactive) and the GI50 (SK-OV-3) was > 100 µM (inactive). For the same molecule, the GI50 (SN12C) was > 100 µM (inactive), the GI50 (RXF 631) was > 100 µM (inactive) and the GI50 (HCT-15) was 67 µM. For the same molecule, the GI50 (DMS-114) was 29.4 µM (inactive), the GI50 (DLD-1) was 82.2 µM (inactive) and the GI50 (SW-620) was > 100 µM (inactive). The GI50 (LOX IMVI) was 40.8 µM (inactive), the GI50 (HOP-62) was 52 µM (inactive) and the GI50 (SF-295) was 56.6 µM (inactive). The GI50 (A549) was 26.2 µM (inactive), the GI50 (NCI-H23) was 32.1 µM (inactive) and the GI50 (TK-10) was > 100 µM (inactive).
